Reference: patent US10758534B2 (Vertex Pharmaceuticals Incorporated, priority 2014, dated 2020)
Read-outs that look alike come from different tables or passages of the source.

Molecular target: T1, F508del (Homo sapiens, UniProt P13569, DEL508-508)
T1 construct: expressed in transfected cells
Assay: Protocol 2: FRET membrane potential optical assay (VIPR), identification of correction compounds
Format: cell-based
Summary of the method: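 NIH3T3 mouse fibroblasts stably expressing F508del were treated with test compound for 16 hrs at 37° C. in serum-free medium; 27° C. incubation served as positive control. F508del was activated with 10 μM forskolin plus 20 μM genistein in Cl^−-free medium, and Cl^− efflux-driven depolarization was read by DiSBAC2(3)/CC2-DMPE FRET.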

[1] = F508del CFTR modulator activity, compounds of Table 1, read-out: EC30
[2] = Table 3, compounds of Table 1 as modulators of CFTR activity, protocol not stated

T1 sequence (P13569 with tags, fused parts or gaps DEL508-508): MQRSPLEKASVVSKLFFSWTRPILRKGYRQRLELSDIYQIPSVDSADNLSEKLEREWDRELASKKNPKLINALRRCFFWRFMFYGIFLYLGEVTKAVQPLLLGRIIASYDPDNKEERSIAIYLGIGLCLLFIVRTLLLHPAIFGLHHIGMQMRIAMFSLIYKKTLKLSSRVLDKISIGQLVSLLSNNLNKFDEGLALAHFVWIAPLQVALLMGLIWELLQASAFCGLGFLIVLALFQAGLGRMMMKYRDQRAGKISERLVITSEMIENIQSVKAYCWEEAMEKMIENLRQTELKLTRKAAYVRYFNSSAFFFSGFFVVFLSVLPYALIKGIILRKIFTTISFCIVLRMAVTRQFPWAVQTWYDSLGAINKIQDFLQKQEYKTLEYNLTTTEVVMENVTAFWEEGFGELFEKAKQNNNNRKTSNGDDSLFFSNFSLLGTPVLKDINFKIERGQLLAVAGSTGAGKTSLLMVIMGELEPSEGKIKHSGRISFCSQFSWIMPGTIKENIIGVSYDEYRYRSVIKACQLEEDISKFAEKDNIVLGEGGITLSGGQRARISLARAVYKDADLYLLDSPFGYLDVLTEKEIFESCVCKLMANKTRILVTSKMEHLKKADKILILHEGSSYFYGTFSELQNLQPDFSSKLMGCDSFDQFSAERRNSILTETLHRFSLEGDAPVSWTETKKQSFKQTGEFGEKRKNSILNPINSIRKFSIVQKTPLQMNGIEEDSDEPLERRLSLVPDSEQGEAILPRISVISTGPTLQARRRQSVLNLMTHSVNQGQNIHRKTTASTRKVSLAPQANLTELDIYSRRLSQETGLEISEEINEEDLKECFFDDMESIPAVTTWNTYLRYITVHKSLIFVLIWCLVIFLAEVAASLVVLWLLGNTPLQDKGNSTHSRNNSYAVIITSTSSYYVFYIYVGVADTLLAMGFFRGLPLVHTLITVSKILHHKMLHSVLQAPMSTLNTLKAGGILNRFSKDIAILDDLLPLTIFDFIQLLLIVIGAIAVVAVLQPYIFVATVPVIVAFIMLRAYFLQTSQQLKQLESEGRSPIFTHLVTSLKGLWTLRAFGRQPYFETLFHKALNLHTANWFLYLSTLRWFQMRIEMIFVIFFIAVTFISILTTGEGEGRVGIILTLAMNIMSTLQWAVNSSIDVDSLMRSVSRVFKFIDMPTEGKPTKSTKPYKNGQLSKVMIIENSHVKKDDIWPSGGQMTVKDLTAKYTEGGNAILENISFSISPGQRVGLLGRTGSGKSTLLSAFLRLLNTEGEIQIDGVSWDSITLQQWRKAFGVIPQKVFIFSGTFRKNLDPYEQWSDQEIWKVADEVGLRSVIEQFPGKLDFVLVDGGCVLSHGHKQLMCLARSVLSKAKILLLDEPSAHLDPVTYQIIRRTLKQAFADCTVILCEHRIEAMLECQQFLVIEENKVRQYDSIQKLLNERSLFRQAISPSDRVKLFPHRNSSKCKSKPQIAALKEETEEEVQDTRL

EC30 [1] [nM]	EC30 [2]	SMILES
< 3000		CC1CN(c2ncccc2C(=O)NS(=O)(=O)c2cccc(NCCc3ccc(Cl)cc3)n2)C(C)(C)C1 (stereo not shown) [Compound 2262, N—[[6-[2-(4-chlorophenyl)ethylamino]-2-pyridyl]sulfonyl]-2-(2,2,4-trimethylpyrrolidin-1-yl)pyridine-3-carboxamide]
< 3000		CC1CN(c2ncccc2C(=O)NS(=O)(=O)c2cccc(Oc3ccccc3C(C)(C)C)n2)C(C)(C)C1 (stereo not shown) [Compound 2083, N—[[6-(2-tert-butylphenoxy)-2-pyridyl]sulfonyl]-2-(2,2,4-trimethylpyrrolidin-1-yl)pyridine-3-carboxamide]
< 3000		C[C@@H]1CN(c2nc(-c3cccc(F)c3)ccc2C(=O)NS(=O)(=O)c2cccc(N)n2)C(C)(C)C1 [Compound 2566, N-[(6-amino-2-pyridyl)sulfonyl]-6-(3-fluorophenyl)-2-[(4S)-2,2,4-trimethylpyrrolidin-1-yl]pyridine-3-carboxamide]
	++ (“++” means between 3 uM and 10 uM)	Cc1cc(C)c(Oc2nc(-c3cnn(CC(C)C)c3)ccc2C(=O)NS(=O)(=O)c2cc[nH]n2)c(C)c1 [Compound 577, 6-(1-isobutylpyrazol-4-yl)-N-(1H-pyrazol-3-ylsulfonyl)-2-(2,4,6-trimethylphenoxy)pyridine-3-carboxamide]
< 3000		C[C@@H]1CN(c2nc(-n3ccc(OCC(C)(C)C)n3)ccc2C(=O)NS(=O)(=O)C2CC2)C(C)(C)C1 [Compound 2554, N-cyclopropylsulfonyl-6-[3-(2,2-dimethylpropoxy)pyrazol-1-yl]-2-[(4S)-2,2,4-trimethylpyrrolidin-1-yl]pyridine-3-carboxamide]
	+++ (“+++” means <3 uM)	Cc1cc(C)c(Oc2nc(-c3ccc(F)cc3)ccc2C(=O)NS(=O)(=O)c2cc[nH]n2)c(C)c1 [Compound 518, 6-(4-fluorophenyl)-N-(1H-pyrazol-3-ylsulfonyl)-2-(2,4,6-trimethylphenoxy)pyridine-3-carboxamide]
3000 to 10000		COC[C@@H]1CCCN1c1cccc(S(=O)(=O)NC(=O)c2cccnc2N2CC(C)CC2(C)C)n1 (stereo partly drawn) [Compound 2024, N—[[6-[(2S)-2-(methoxymethyl)pyrrolidin-1-yl]-2-pyridyl]sulfonyl]-2-(2,2,4-trimethylpyrrolidin-1-yl)pyridine-3-carboxamide]
< 3000		COc1ccc(-c2ccc(C(=O)NS(=O)(=O)c3cccnc3N)c(N3C[C@@H](C)CC3(C)C)n2)c(F)c1F [Compound 2302, N-[(2-amino-3-pyridyl)sulfonyl]-6-(2,3-difluoro-4-methoxy-phenyl)-2-[(4S)-2,2,4-trimethylpyrrolidin-1-yl]pyridine-3-carboxamide]
< 3000		COc1cccc(CNc2cccc(S(=O)(=O)NC(=O)c3cccnc3N3CC(C)CC3(C)C)n2)c1 (stereo not shown) [Compound 2168, N—[[6-[(3-methoxyphenyl)methylamino]-2-pyridyl]sulfonyl]-2-(2,2,4-trimethylpyrrolidin-1-yl)pyridine-3-carboxamide]
< 3000		CC1CN(c2ncc(-c3cc(OC(C)C)ccc3Cl)cc2C(=O)NS(=O)(=O)c2cccc(N)n2)C(C)(C)C1 (stereo not shown) [Compound 2210, N-[(6-amino-2-pyridyl)sulfonyl]-5-(2-chloro-5-isopropoxy-phenyl)-2-(2,2,4-trimethylpyrrolidin-1-yl)pyridine-3-carboxamide]
	+++ (“+++” means <3 uM)	CC(C)Oc1ccc(-c2ccc(C(=O)NS(=O)(=O)c3cccc(N)n3)c(N3CC[C@H](C)[C@H]3C)n2)cn1 [Compound 764, N-[(6-amino-2-pyridyl)sulfonyl]-2-[(2R,3S)-2,3-dimethylpyrrolidin-1-yl]-6-(6-isopropoxy-3-pyridyl)pyridine-3-carboxamide]
< 3000		CC1CN(c2ncccc2C(=O)NS(=O)(=O)c2cccc(NCc3ccc(C(C)C)cc3)n2)C(C)(C)C1 (stereo not shown) [Compound 2187, N—[[6-[(4-isopropylphenyl)methylamino]-2-pyridyl]sulfonyl]-2-(2,2,4-trimethylpyrrolidin-1-yl)pyridine-3-carboxamide]
3000 to 10000		COc1cccc(S(=O)(=O)NC(=O)c2cccnc2N2CC(C)CC2(C)C)n1 (stereo not shown) [Compound 2430]
< 3000		COc1ccccc1CNc1cccc(S(=O)(=O)NC(=O)c2cccnc2N2CC(C)CC2(C)C)n1 (stereo not shown) [Compound 2310, N—[[6-[(2-methoxyphenyl)methylamino]-2-pyridyl]sulfonyl]-2-(2,2,4-trimethylpyrrolidin-1-yl)pyridine-3-carboxamide]
< 3000		CC1CN(c2ncc(/C=C/C3CCCCC3)cc2C(=O)NS(=O)(=O)c2cccc(N)n2)C(C)(C)C1 (stereo not shown) [Compound 2063, N-[(6-amino-2-pyridyl)sulfonyl]-5-[(E)-2-cyclohexylvinyl]-2-(2,2,4-trimethylpyrrolidin-1-yl)pyridine-3-carboxamide]
< 3000		CC(C)c1cccc(-c2ccc(C(=O)NS(=O)(=O)c3ccc[nH]c3=O)c(N3C[C@@H](C)CC3(C)C)n2)c1 [Compound 2498, 6-(3-isopropylphenyl)-N-[(2-oxo-1H-pyridin-3-yl)sulfonyl]-2-[(4S)-2,2,4-trimethylpyrrolidin-1-yl]pyridine-3-carboxamide]
< 3000		C[C@@H]1CN(c2nc(-c3ccc(C#N)cc3)ccc2C(=O)NS(=O)(=O)c2cccnc2N)C(C)(C)C1 [Compound 2096, N-[(2-amino-3-pyridyl)sulfonyl]-6-(4-cyanophenyl)-2-[(4S)-2,2,4-trimethylpyrrolidin-1-yl]pyridine-3-carboxamide]
< 3000		CC1CN(c2ncc(-c3cccc(C(C)(C)C)c3)cc2C(=O)NS(=O)(=O)c2cccc(N)n2)C(C)(C)C1 (stereo not shown) [Compound 2180, N-[(6-amino-2-pyridyl)sulfonyl]-5-(3-tert-butylphenyl)-2-(2,2,4-trimethylpyrrolidin-1-yl)pyridine-3-carboxamide]
	++ (“++” means between 3 uM and 10 uM)	C[C@@H]1CC[C@H](C)N1c1nc(C2CCCCC2)ccc1C(=O)NS(=O)(=O)c1cccc(N)n1 [Compound 704, N-[(6-amino-2-pyridyl)sulfonyl]-6-cyclohexyl-2-[(2S,5R)-2,5-dimethylpyrrolidin-1-yl]pyridine-3-carboxamide]

The next lines start with the molecule.

SMILES	EC30 [1] [nM]	EC30 [2]
CC(C)(C)c1ccc(C(=O)NS(=O)(=O)c2cccc(N)n2)c(N2CCCCC2)n1 [Compound 571, N-[(6-amino-2-pyridyl)sulfonyl]-6-tert-butyl-2-(1-piperidyl)pyridine-3-carboxamide]		++ (“++” means between 3 uM and 10 uM)
CC(C)COc1cc(F)cc(-c2ccc(C(=O)NS(=O)(=O)c3cccc(N)n3)c(N3CCC[C@@H]3C(=O)OC(C)(C)C)n2)c1 [Compound 2216, tert-butyl (2R)-1-[3-[(6-amino-2-pyridyl)sulfonylcarbamoyl]-6-(3-fluoro-5-isobutoxy-phenyl)-2-pyridyl]pyrrolidin-2-carboxylate]	< 3000	
Cc1cccc(C)c1Cn1nc(C(C)(C)C)cc1C(=O)NS(=O)(=O)c1cccc2c1OCC2 [Compound 211, 5-tert-butyl-N-(2,3-dihydrobenzofuran-7-ylsulfonyl)-2-[(2,6-dimethylphenyl)methyl]pyrazole-3-carboxamide]		++ (“++” means between 3 uM and 10 uM)
C[C@@H]1CN(c2nc(-c3ccc4c(c3)OC(F)(F)O4)ccc2C(=O)NS(=O)(=O)c2cccc(N)n2)C(C)(C)C1 [Compound 2104, N-[(6-amino-2-pyridyl)sulfonyl]-6-(2,2-difluoro-1,3-benzodioxol-5-yl)-2-[(4S)-2,2,4-trimethylpyrrolidin-1-yl]pyridine-3-carboxamide]	< 3000	
Cc1cc(C)c(CN2CCc3ccccc3C2C(=O)NS(=O)(=O)c2cccc(N)c2)c(C)c1 (stereo not shown) [Compound 309, N-(3-aminophenyl)sulfonyl-2-[(2,4,6-trimethylphenyl)methyl]-3,4-dihydro-1H-isoquinoline-1-carboxamide]		+++ (“+++” means <3 uM)
COc1ccc(C)cc1-c1ccc(C(=O)NS(=O)(=O)c2ccc[nH]c2=O)c(N2C[C@@H](C)CC2(C)C)n1 [Compound 2530, 6-(2-methoxy-5-methyl-phenyl)-N-[(2-oxo-1H-pyridin-3-yl)sulfonyl]-2-[(4S)-2,2,4-trimethylpyrrolidin-1-yl]pyridine-3-carboxamide]	< 3000	
Cc1ccc2nc(N3C[C@@H](C)CC3(C)C)c(C(=O)NS(=O)(=O)c3ccc[nH]c3=O)cc2c1 [Compound 2471, 6-methyl-N-[(2-oxo-1H-pyridin-3-yl)sulfonyl]-2-[(4S)-2,2,4-trimethylpyrrolidin-1-yl]quinoline-3-carboxamide]	3000 to 10000	
COc1ncc(-c2ccc(C(=O)NS(=O)(=O)c3cccnc3N)c(N3C[C@@H](C)CC3(C)C)n2)cc1F [Compound 2628, N-[(2-amino-3-pyridyl)sulfonyl]-6-(5-fluoro-6-methoxy-3-pyridyl)-2-[(4S)-2,2,4-trimethylpyrrolidin-1-yl]pyridine-3-carboxamide]	< 3000	
CC(C)COc1cc(F)cc(-c2ccc(C(=O)NS(=O)(=O)c3cccc(N)n3)c(OC3CCC(C)C3C)n2)c1 (stereo not shown) [Compound 503, N-[(6-amino-2-pyridyl)sulfonyl]-2-(2,3-dimethylcyclopentoxy)-6-(3-fluoro-5-isobutoxy-phenyl)pyridine-3-carboxamide]		+++ (“+++” means <3 uM)
Cc1cc(C)c(Cn2c(C(=O)NS(=O)(=O)c3ccccc3)cc3c(C)cccc32)c(C)c1 [Compound 143, N-(benzenesulfonyl)-4-methyl-1-[(2,4,6-trimethylphenyl)methyl]indole-2-carboxamide]		+++ (“+++” means <3 uM)
Cc1cccc(C)c1Cn1nc(-c2ccccc2Cl)cc1C(=O)NS(=O)(=O)c1ccccc1 [Compound 339, N-(benzenesulfonyl)-5-(2-chlorophenyl)-2-[(2,6-dimethylphenyl)methyl]pyrazole-3-carboxamide]		+++ (“+++” means <3 uM)
Cc1cccc(-c2ccc(C(=O)NS(=O)(=O)N3CC[C@H](N)C3)c(N3C[C@@H](C)CC3(C)C)n2)c1 [Compound 2339, N-[(3S)-3-aminopyrrolidin-1-yl]sulfonyl-6-(m-tolyl)-2-[(4S)-2,2,4-trimethylpyrrolidin-1-yl]pyridine-3-carboxamide]	< 3000	
